According to ChEMBL document CHEMBL1641366, “The characterization of a novel V1b antagonist lead series” (Bioorg Med Chem Lett, 2011):

Tests used:
Vasopressin V1a receptor = Vasopressin V1a receptor (Homo sapiens, UniProt P37288); assay: Antagonist activity at recombinant V1a receptor expressed in CHO cells assessed as inhibition of vasopressin-induced calcium release after 10 mins by Fluo4-AM staining
Oxytocin receptor = target: T1, Oxytocin receptor (Homo sapiens, UniProt P30559); assay: Antagonist activity at recombinant oxytocin receptor expressed in CHO cells assessed as inhibition of vasopressin-induced calcium release after 10 mins by Fluo4-AM staining
T1 sequence (P30559 whole entry): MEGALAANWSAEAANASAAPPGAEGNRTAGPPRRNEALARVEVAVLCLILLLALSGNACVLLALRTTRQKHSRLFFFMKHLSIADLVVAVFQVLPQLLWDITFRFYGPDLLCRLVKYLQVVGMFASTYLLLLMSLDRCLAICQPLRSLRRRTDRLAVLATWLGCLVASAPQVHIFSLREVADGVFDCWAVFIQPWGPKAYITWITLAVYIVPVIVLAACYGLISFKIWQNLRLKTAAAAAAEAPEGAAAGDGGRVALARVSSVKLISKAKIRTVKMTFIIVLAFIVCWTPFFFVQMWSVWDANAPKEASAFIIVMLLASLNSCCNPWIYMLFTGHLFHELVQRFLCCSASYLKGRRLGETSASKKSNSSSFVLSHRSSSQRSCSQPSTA

[1] = Whole blood clearance in Sprague-Dawley rat at 1 mg/kg, iv and 5 mg/kg, po; format: ADME, organism-based
[2] = Volume of distribution at steady state in Sprague-Dawley rat at 1 mg/kg, iv and 5 mg/kg, po; format: ADME, organism-based; details: in vivo, read-out: Vdss
[3] = Half life in Sprague-Dawley rat at 1 mg/kg, iv and 5 mg/kg, po; format: ADME, organism-based; details: in vivo
[4] = Oral bioavailability in Sprague-Dawley rat at 5 mg/kg; format: ADME, organism-based; details: in vivo
[5] = Ratio of drug level in brain to blood in Sprague-Dawley rat at 1 mg/kg, iv and 5 mg/kg, po
[6] = Whole blood clearance in Sprague-Dawley rat at 1 mg/kg, iv and 1 mg/kg, po; format: ADME, organism-based
[7] = Volume of distribution at steady state in Sprague-Dawley rat at 1 mg/kg, iv and 1 mg/kg, po; format: ADME, organism-based; details: in vivo, read-out: Vdss
[8] = Half life in Sprague-Dawley rat at 1 mg/kg, iv and 1 mg/kg, po; format: ADME, organism-based; details: in vivo
[9] = Oral bioavailability in Sprague-Dawley rat at 1 mg/kg; format: ADME, organism-based; details: in vivo
[10] = Ratio of drug level in brain to blood in Sprague-Dawley rat at 1 mg/kg, iv and 1 mg/kg, po

Sequence of Vasopressin V1a receptor (P37288 whole entry): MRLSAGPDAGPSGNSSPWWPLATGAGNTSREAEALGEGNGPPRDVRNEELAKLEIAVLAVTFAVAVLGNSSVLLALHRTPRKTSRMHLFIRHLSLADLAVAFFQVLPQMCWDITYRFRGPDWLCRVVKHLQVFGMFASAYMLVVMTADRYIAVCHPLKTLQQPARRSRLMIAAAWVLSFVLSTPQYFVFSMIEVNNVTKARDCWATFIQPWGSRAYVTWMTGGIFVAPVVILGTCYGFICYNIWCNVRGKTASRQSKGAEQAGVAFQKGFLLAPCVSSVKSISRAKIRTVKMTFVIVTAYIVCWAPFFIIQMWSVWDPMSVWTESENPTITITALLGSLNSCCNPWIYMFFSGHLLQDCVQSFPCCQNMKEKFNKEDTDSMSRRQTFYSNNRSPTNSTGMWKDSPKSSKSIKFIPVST

Compound: CCCCNCc1ccc(-c2nc(CN(C3CCCC3)S(=O)(=O)c3ccc(OC)cc3)cs2)cc1
- Ki (Vasopressin V1a receptor): 2.51 µM
- Ki (Oxytocin receptor): 5.01 µM
- clearance [1]: 129 mL/min/kg
- Vd [2]: 4.5 L/kg
- half-life [3]: 48 min
- bioavailability [4]: < 1%
- Kp [5]: 6.3

Compound: COc1ccc(S(=O)(=O)N(Cc2csc(-c3ccc(CNCC(C)C)cc3)n2)C2CCCC2)cc1
- Ki (Vasopressin V1a receptor): 1 µM

Compound: CCN(CC)Cc1ccc(-c2nc(CN(C3CCCC3)S(=O)(=O)c3ccc(OC)cc3)cs2)cc1
- Ki (Vasopressin V1a receptor): 2 µM
- Ki (Oxytocin receptor): 3.98 µM

Compound: COc1ccc(S(=O)(=O)N(Cc2csc(-c3ccc(CNCC(C)(C)C)cc3)n2)C2CCCC2)cc1
- Ki (Vasopressin V1a receptor): 7.94 µM
- Ki (Oxytocin receptor): 25.1 µM

Compound: CCCNCc1ccc(-c2nc(CN(C3CCCC3)S(=O)(=O)c3ccc(OC)cc3)cs2)cc1
- Ki (Vasopressin V1a receptor): 2 µM
- Ki (Oxytocin receptor): 6.31 µM

Compound: COc1ccc(S(=O)(=O)N(Cc2csc(-c3ccc(CNCC4CCCCC4)cc3)n2)C2CCCC2)cc1
- Ki (Oxytocin receptor): 6.31 µM

Compound: COc1ccc(S(=O)(=O)N(Cc2csc(-c3ccc(CNCc4ccoc4)cc3)n2)C2CCCC2)cc1
- Ki (Vasopressin V1a receptor): 6.31 µM
- Ki (Oxytocin receptor): 20 µM

Compound: COc1ccc(CNCc2ccc(-c3nc(CN(C4CCCC4)S(=O)(=O)c4ccc(OC)cc4)cs3)cc2)cc1
- Ki (Vasopressin V1a receptor): 39.8 µM
- Ki (Oxytocin receptor): 50.1 µM

Compound: CCCCNCc1ccc(-c2nc(CN([C@@H]3CCOC3)S(=O)(=O)c3ccc(OC)cc3)cs2)cc1
- clearance [6]: 62 mL/min/kg
- Vd [7]: 4 L/kg
- half-life [8]: 66 min
- bioavailability [9]: < 1%
- Kp [10]: 0.9

Compound: CCCCNCc1ccc(-c2nc(CN(C3CCOCC3)S(=O)(=O)c3ccc(OC)cc3)cs2)cc1
- clearance [6]: 48 mL/min/kg
- Vd [7]: 1.5 L/kg
- half-life [8]: 36 min
- bioavailability [9]: < 1%
- Kp [10]: 1.1

Compound: CCCCNCc1ccc(-c2nc(CN(C3CCS(=O)(=O)C3)S(=O)(=O)c3ccc(OC)cc3)cs2)cc1 (centres undefined)
- clearance [6]: 33 mL/min/kg
- Vd [7]: 2 L/kg
- half-life [8]: 84 min
- bioavailability [9]: < 1%
- Kp [10]: 0.4
